This note sets out measurements from US20260285853A1, “COMPOUNDS AND METHODS FOR MODULATING SPLICING” (REMIX THERAPEUTICS INC., priority 2023, published 2026).

What is called IC50 is the midpoint of a concentration-inhibition curve. As usually defined, the GI50 is the concentration that inhibits growth by half.

Some results are limits rather than exact numbers.

Assay type in all cases: cell-based
The subject of one experiment is HTT mRNA. Kind of experiment: Gene panel canonical junction qPCR assay, decrease in CJ mRNA, Table 3. Particulars: decrease in canonical junction (CJ) mRNA, gene panel qPCR, Table 3. The method, boiled down: (§1)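 A673 (DMEM, 10% FBS, 15,000 cells/well) or K562 (IMDM, 10% FBS) cells treated 24 h at 37 °C with 11-point 3-fold dilutions, top 10 uM, DMSO ≤0.25%. Canonical exon-exon junction mRNA measured by RT-qPCR, normalized to GAPDH, GUSB or PPIA and DMSO (ΔΔCt); IC50 from 4-parameter logistic fit.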

The subject of the next experiment is MYB mRNA. The experiment is described as above. The conditions noted are these: decrease in canonical junction (CJ) mRNA, gene panel qPCR, Table 3. The gist of the method:
as §1
In general terms: Real-time PCR tracks product formation cycle by cycle.

The subject of a further experiment is SMN2 mRNA. Described as above. Particulars: decrease in canonical junction (CJ) mRNA, gene panel qPCR, Table 3. The gist of the method: as §1
The subject of experiment [1] is SH-SY5Y (human neuroblastoma) cells. Kind of experiment: Cell viability, Cell Titer Glo 2.0 assay. The conditions noted are these: read-out: Viability SHSY5Y.3 GI50. The gist of the method:
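Toxicity screen in SH-SY5Y cells. Compounds were serially diluted in DMSO and then in medium, giving 0.1% DMSO final. Viability was read with CellTiter-Glo 2.0 after 72 h at 37 °C, 5% CO2, against medium-only blank wells.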
For orientation: In ATP-based viability assays light output follows the ATP content of the culture.

With `CCNC1CCN(c2ccc(C(=O)Nc3cc(F)c4nn(C)cc4c3)c3nn(C)cc23)CC1` [Compound 182, 4-(4-(ethylamino)piperidin-1-yl)-N-(7-fluoro-2-methyl-2H-indazol-5-yl)-2-methyl-2H-indazole-7-carboxamide], the figures for the IC50 with HTT mRNA, with MYB mRNA and with SMN2 mRNA were 1 to 10 µM, under 0.1 µM and under 0.1 µM, respectively. Also, the GI50 in experiment [1] lay within 0.1 to 1 µM.
As to `Cc1cn2cc(NC(=O)c3ccc(N4CCC(NC5CC5)CC4)c4cc(C)oc34)cc(F)c2n1` [Compound 185, 4-[4-(cyclopropyl-amino)-1-piperidyl]-N-(8-fluoro-2-methyl-imidazo[1,2-a]pyridin-6-yl)-2-methyl-benzofuran-7-carboxamide], the IC50 in the experiment with HTT mRNA was 1 to 10 µM; in the experiment with MYB mRNA, 0.1 to 1 µM; in the experiment with SMN2 mRNA, under 0.1 µM. In addition, the GI50 in experiment [1] was in the range of 0.1 to 1 µM.
Turning to `CCNC1CCN(c2ccc(C(=O)Nc3cc(C)c4nc(C)cn4n3)c3nn(C)cc23)CC1` [Compound 186, N-(2,8-dimethylimidazo [1,2-b]pyridazin-6-yl)-4-[4-(ethylamino)-1-piperidyl]-2-methyl-indazole-7-carboxamide], the IC50 in the experiment with HTT mRNA, with MYB mRNA and with SMN2 mRNA was 0.1 to 1 µM throughout. Besides, the GI50 in experiment [1] lay within 0.1 to 1 µM.
`Cc1cn2nc(NC(=O)c3ccc(N4CCC(NC5CC5)CC4)c4cn(C)nc34)cc(C)c2n1` [Compound 187, 4-[4-(cyclopropylamino)-1-piperidyl]-N-(2,8-dimethylimidazo-[1,2-b]pyridazin-6-yl)-2-methyl-indazole-7-carboxamide]: the IC50 in the experiment with HTT mRNA, in the experiment with MYB mRNA and in the experiment with SMN2 mRNA was 0.1 to 1 µM throughout. For the same molecule, the concentration for 50% growth inhibition (GI50) in experiment [1] is 0.1 to 1 µM.
Regarding `CCNC1CCN(c2ccc(C(=O)Nc3cc(F)c4nc(C)c(C)n4c3)c3nn(C)cc23)CC1` [Compound 188, 4-[4-(ethylamino)-1-piperidyl]-N-(8-fluoro-2,3-dimethyl-imidazo[1,2-a]pyridin-6-yl)-2-methyl-indazole-7-carboxamide], the IC50 in the experiment on HTT mRNA, in the experiment with MYB mRNA and with SMN2 mRNA was over 10 µM throughout. In experiment [1], the GI50 is 1 to 10 µM.
Regarding `Cc1nc2c(F)cc(NC(=O)c3ccc(N4CCC(NC5CC5)CC4)c4cn(C)nc34)cn2c1C` [Compound 189, 4-[4-(cyclopropylamino)-1-piperidyl]-N-(8-fluoro-2,3-dimethyl-imidazo[1,2-a]pyridin-6-yl)-2-methyl-indazole-7-carboxamide], the IC50 in the experiment with HTT mRNA, in the experiment with MYB mRNA and with SMN2 mRNA was over 10 µM in each case. Also, the GI50 in experiment [1] was 0.1 to 1 µM.
As for `CCNC1CCN(c2ccc(C(=O)Nc3cc4cn(C)nc4cc3O)c3[nH]ccc23)CC1` [Compound 190, 4-[4-(ethylamino)-1-piperidyl]-N-(6-hydroxy-2-methyl-indazol-5-yl)-1H-indole-7-carboxamide], the IC50 with HTT mRNA, in the experiment with MYB mRNA and with SMN2 mRNA was over 10 µM throughout. Also, the GI50 in experiment [1] was over 10 µM.
For `Cc1cn2cc(NC(=O)c3ccc(N4CCC(NC5CC5)CC4)c4ccoc34)cc(F)c2n1` [Compound 191, 4-[4-(cyclopropylamino)-1-piperidyl]-N-(8-fluoro-2-methyl-imidazo[1,2-a]pyridin-6-yl) benzofuran-7-carboxamide], the IC50 in the experiment with HTT mRNA is 1 to 10 µM; in the experiment on MYB mRNA it was 0.1 to 1 µM; in the experiment on SMN2 mRNA, under 0.1 µM. Besides, in experiment [1], the GI50 lay within 0.1 to 1 µM.
For `Cc1cn2cc(NC(=O)c3ccc(C4CCC(NC5CC5)CC4)c4cn(C)nc34)cc(F)c2n1` (stereo not drawn) [Compound 192, 4-[4-(cyclopropylamino)cyclohexyl]-N-(8-fluoro-2-methyl-imidazo[1,2-a]pyridin-6-yl)-2-methyl-indazole-7-carboxamide], the IC50 is 0.1 to 1 µM in the experiment with HTT mRNA, 0.1 to 1 µM in the experiment on MYB mRNA and under 0.1 µM in the experiment with SMN2 mRNA. In addition, the GI50 in experiment [1] is 0.1 to 1 µM.
As for `CCNC1CCN(c2ccc(C(=O)Nc3cc(F)c4nc(CO)cn4c3)c3nn(C)cc23)CC1` [Compound 193, 4-[4-(ethylamino)-1-piperidyl]-N-[8-fluoro-2-(hydroxymethyl)imidazo[1,2-a]pyridin-6-yl]-2-methyl-indazole-7-carboxamide], the IC50 is over 10 µM in the experiment on HTT mRNA, 0.1 to 1 µM in the experiment with MYB mRNA and under 0.1 µM with SMN2 mRNA. Further, the GI50 in experiment [1] was 1 to 10 µM.
Regarding `Cc1cn2cc(NC(=O)c3ccc(C4CNCCO4)c4[nH]cnc34)cc(F)c2n1` (stereo not drawn) [Compound 194, N-(8-fluoro-2-methyl-imidazo[1,2-a]pyridin-6-yl)-7-morpholin-2-yl-1H-benzimidazole-4-carboxamide], the IC50 in the experiment on HTT mRNA was 1 to 10 µM; with MYB mRNA it was 0.1 to 1 µM; in the experiment on SMN2 mRNA, under 0.1 µM. In addition, in experiment [1], the GI50 is 1 to 10 µM.
With `CCNC1CCN(c2cc(F)c(C(=O)Nc3cc(F)c4nc(C)cn4c3)c3ccoc23)CC1` [Compound 195, 7-[4-(ethylamino)-1-piperidyl]-5-fluoro-N-(8-fluoro-2-methylimidazo[1,2-a]pyridin-6-yl)-benzofuran-4-carboxamide], the IC50 in the experiment on HTT mRNA is over 10 µM; in the experiment with MYB mRNA, over 10 µM; with SMN2 mRNA, 1 to 10 µM. The concentration for 50% growth inhibition (GI50) in experiment [1] was in the range of 1 to 10 µM.
`CCNC1CCN(c2ccc(C(=O)Nc3cc(F)c4nc(C)cn4c3)c3nn(C)nc23)CC1` [Compound 196, 7-[4-(ethylamino)piperidin-1-yl]-N-(8-fluoro-2-methyl-imidazo[1,2-a]pyridin-6-yl)-2-methyl-1,2,3-benzotriazole-4-carboxamide]: the IC50 is 0.1 to 1 µM in the experiment with HTT mRNA, 0.1 to 1 µM in the experiment with MYB mRNA and under 0.1 µM with SMN2 mRNA. Further, the GI50 in experiment [1] lay within 1 to 10 µM.
As for `CNC1(C)CCN(c2ccc(C(=O)Nc3cn4cc(C)nc4c(OC)n3)c3nn(C)cc23)CC1` [Compound 197, N-(8-methoxy-2-methylimidazo[1,2-a]pyrazin-6-yl)-2-methyl-4-(4-methyl-4-(methylamino)piperidin-1-yl)-2H-indazole-7-carboxamide], the IC50 in the experiment with HTT mRNA, with MYB mRNA and with SMN2 mRNA was under 0.1 µM in each case. In addition, the GI50 in experiment [1] is under 0.1 µM.
With `CCNC1CCN(c2ccc(C(=O)Nc3cc(F)c4nc(C)cn4c3)c3c2nnn3C)CC1` [Compound 198, 4-(4-(ethylamino)piperidin-1-yl)-N-(8-fluoro-2-methylimidazo[1,2-a]pyridin-6-yl)-1-methyl-1H-benzo[d][1,2,3]triazole-7-carboxamide 2,2,2-trifluoroacetate], the concentration for half-maximal inhibition (IC50) with HTT mRNA, with MYB mRNA and in the experiment on SMN2 mRNA was over 10 µM each time. Besides, the GI50 in experiment [1] was over 10 µM.
`CCNC1CCN(c2ccc(C(=O)Nc3cc(F)c4nc(C)cn4c3)c3nnn(C)c23)CC1` [Compound 199, 7-[4-(ethylamino)-1-piperidyl]-N-(8-fluoro-2-methylimidazo[1,2-a]-pyridin-6-yl)-1-methylbenzotriazole-4-carboxamide]: the figures for the IC50 in the experiment with HTT mRNA, with MYB mRNA and in the experiment on SMN2 mRNA were over 10 µM, 0.1 to 1 µM and under 0.1 µM, respectively. In addition, in experiment [1], the GI50 is 1 to 10 µM.
The matching figures for `CCNC1CCN(c2ccc(C(=O)Nc3cc(F)c4nc(C)oc4c3)c3nn(C)cc23)CC1` [Compound 200, 4-(4-(ethylamino)piperidin-1-yl)-N-(4-fluoro-2-methylbenzo[d]-oxazol-6-yl)-2-methyl-2H-indazole-7-carboxamide]: 0.1 to 1 µM, 0.1 to 1 µM, under 0.1 µM and 0.1 to 1 µM.
For `CCNC1CCN(c2ccc(C(=O)Nc3cc(F)c4nc(CC)cn4c3)c3nn(C)cc23)CC1` [Compound 201, 4-[4-(ethylamino)-1-piperidyl]-N-(2-ethyl-8-fluoro-imidazo[1,2-a]pyridin-6-yl)-2-methyl-indazole-7-carboxamide], the IC50 in the experiment with HTT mRNA is 1 to 10 µM; in the experiment with MYB mRNA, 1 to 10 µM; with SMN2 mRNA, 0.1 to 1 µM. The GI50 in experiment [1] was 1 to 10 µM.
Take `CCNC1CCN(c2ccc(C(=O)Nc3cc(F)c4nc(CF)cn4c3)c3nn(C)cc23)CC1` [Compound 202, 4-[4-(ethylamino)-1-piperidyl]-N-[8-fluoro-2-(fluoromethyl)imidazo[1,2-a]pyridin-6-yl]-2-methyl-indazole-7-carboxamide]: the IC50 in the experiment with HTT mRNA is 1 to 10 µM; in the experiment with MYB mRNA, under 0.1 µM; with SMN2 mRNA it was under 0.1 µM. Besides, the GI50 in experiment [1] fell in the range of 0.1 to 1 µM.
On to `Cc1cn2cc(NC(=O)c3ccc(N4CCC(NC5CC56CC6)CC4)c4cn(C)nc34)cc(F)c2n1` (stereo not drawn) [Compound 203, N-(8-fluoro-2-methyl-imidazo[1,2-a]-pyridin-6-yl)-2-methyl-4-[4-(spiro[2.2]pentan-2-ylamino)-1-piperidyl] indazole-7-carboxamide], for which the results for the concentration for half-maximal inhibition (IC50) in the experiment with HTT mRNA, in the experiment with MYB mRNA and in the experiment with SMN2 mRNA were 0.1 to 1 µM, under 0.1 µM and under 0.1 µM, respectively. For the same molecule, the GI50 in experiment [1] lay within 0.1 to 1 µM.
On to `Cc1cn2cc(NC(=O)c3ccc(N4CCC(NC5CC5C)CC4)c4cn(C)nc34)cc(F)c2n1` (stereo not drawn) [Compound 204, N-(8-fluoro-2-methyl-imidazo[1,2-a]pyridin-6-yl)-2-methyl-4-[4-[(2-methyl-cyclopropyl)amino]-1-piperidyl] indazole-7-carboxamide], for which the IC50 in the experiment with HTT mRNA was 0.1 to 1 µM; with MYB mRNA, under 0.1 µM; with SMN2 mRNA it was under 0.1 µM. Moreover, the GI50 in experiment [1] was 0.1 to 1 µM.
